Source: EP4786455A1, “NOVEL PHTHALAZINE DERIVATIVE COMPOUND AS SOS1 INHIBITOR, AND USE THEREOF” (Hanmi Pharmaceutical Co., Ltd., priority 2023, dated 2025)

Target: T1, SOS1 (Homo sapiens, UniProt Q07889)
T1 construct: comprising amino acid residues 564-1049 corresponding to the catalytic domain; purchased Reaction Biology Corp. SOS1-Strep #MSC-11-502; GST-KRAS G12C #MSC-11-538
T1 sequence (Q07889 564-1049): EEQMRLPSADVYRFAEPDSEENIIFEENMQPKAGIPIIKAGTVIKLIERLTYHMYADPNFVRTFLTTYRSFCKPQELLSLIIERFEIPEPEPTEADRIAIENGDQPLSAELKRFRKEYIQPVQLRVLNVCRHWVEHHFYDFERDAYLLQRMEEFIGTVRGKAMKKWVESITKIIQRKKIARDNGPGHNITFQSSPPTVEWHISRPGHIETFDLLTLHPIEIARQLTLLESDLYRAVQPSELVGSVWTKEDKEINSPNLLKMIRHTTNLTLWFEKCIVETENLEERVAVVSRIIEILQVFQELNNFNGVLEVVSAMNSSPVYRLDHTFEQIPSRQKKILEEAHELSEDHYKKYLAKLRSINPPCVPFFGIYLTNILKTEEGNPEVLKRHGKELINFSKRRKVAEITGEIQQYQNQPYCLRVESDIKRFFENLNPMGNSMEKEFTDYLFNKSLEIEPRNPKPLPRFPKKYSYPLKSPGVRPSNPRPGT
Experiment: Inhibitory activity on SOS1-mediated GTP exchange (HTRF / TR-FRET nucleotide exchange assay on KRAS G12C)
Assay type: biochemical
Conditions: SOS1-mediated GTP exchange on GST-KRAS G12C (residues 2-169); SOS1-Strep catalytic domain (564-1049); GTP-DY-647P1; HTRF signal; 5-point concentration series up to 1,000 nM
Experimental: To evaluate whether the SOS1-mediated nucleotide exchange activity on KRAS G12C is inhibited by the compounds of the above Examples, a homogeneous time-resolved fluorescence (homogenous time-resolved fluorescence, HTRF) assay was performed using GST-KRAS G12C (#MSC-11-538) and SOS1-Strep (#MSC-11-502) obtained from Reaction Biology Corp. (USA, MA). The activity of SOS1 was determined by measuring the amount of GTP bound to the KRAS G12C protein based on the principle of time-resolved fluorescence resonance energy transfer (time-resolved fluorescence energy transfer, TR-FRET). Terbium (Terbium) conjugated to an anti-GST antibody bound to the GST tag of the GST-KRAS G12C protein served as a FRET donor, and GTP bound to the KRAS G12C protein was labeled with the fluorophore DY-647P1, serving as a FRET acceptor. Based on this principle, a higher HTRF or FRET signal is observed as more GTP is bound to KRAS G12C due to the SOS1-mediated exchange reaction in the assay.
In summary, a GST-labeled KRAS G12C protein (comprising amino acid residues 2-169), a […] SOS1 protein (comprising amino acid residues 564-1049 corresponding to the catalytic domain), an anti-GST antibody, labeled nucleotide GTP-DY-647P1, and the test compound were mixed in a buffer solution containing 20 mM HEPES (pH 7.4), 150 mM NaCl, 5 mM MgCl2, 1 mM dithiothreitol (DTT), 0.05% BSA, and 0.0025% NP40. The mixture was dispensed into a 384-well plate, incubated at room temperature, and the HTRF signal was measured using a PHERAstar microplate reader (BMG Labtech). The excitation wavelength was 337 nm, and emission was measured at 620/665 nm. A background signal value was determined from fluorescence measurements obtained in the absence of SOS1 protein and was subtracted from all measured HTRF values. A control value was determined from fluorescence measurements obtained in the absence of the synthesized compounds and was set as the 100% reference. Fluorescence signals were measured at compound concentrations of 0.1, 1, 10, 100, and 1,000 nM (5 points, 10-fold) or 1.6, 8, 40, 200, and 1,000 nM (5 points, 5-fold). The 50% inhibitory concentration (IC50) values of the compounds were calculated using GraphPad Prism.
IC50 values were denoted as +++ when 50 nM or less, ++ when greater than 50 nM and 100 nM or less, and + when greater than 100 nM.

Compound | IC50
CNc1cc2c(N[C@H](C)c3cccc(C#N)c3C)nnc(C)c2cc1C(=O)N1CCOCC1 [Example 1, (R)-2-methyl-3-(1-((4-methyl-7-(methylamino)-6-(morpholine-4-carbonyl)phthalazin-1-yl)amino)ethyl)benzonitrile] | ≤ 50 nM
CNc1cc2c(N[C@H](C)c3cccc(C#N)c3C)nnc(C)c2cc1C(=O)N1CCSCC1 [Example 2, (R)-2-methyl-3-(1-((4-methyl-7-(methylamino)-6-(thiomorpholine-4-carbonyl)phthalazin-1-yl)amino)ethyl)benzonitrile] | ≤ 50 nM
CNc1cc2c(N[C@H](C)c3cccc(C#N)c3C)nnc(C)c2cc1C(=O)N1CCSC1 [Example 3, (R)-2-methyl-3-(1-((4-methyl-7-(methylamino)-6-(thiazolidine-3-carbonyl)phthalazin-1-yl)amino)ethyl)benzonitrile] | ≤ 50 nM
CNc1cc2c(N[C@H](C)c3cccc(C#N)c3C)nnc(C)c2cc1C(=O)N1CCS(=O)(=O)CC1 [Example 4, (R)-3-(1-((6-(1,1-dioxothiomorpholine-4-carbonyl)-4-methyl-7-(methylamino)phthalazin-1-yl)amino)ethyl)-2-methylbenzonitrile] | ≤ 50 nM
CNc1cc2c(N[C@H](C)c3cccc(C#N)c3C)nnc(C)c2cc1C(=O)NC1CCOCC1 [Example 5, (R)-1-((1-(3-cyano-2-methylphenyl)ethyl)amino)-4-methyl-7-(methylamino)-N-(tetrahydro-2H-pyran-4-yl)phthalazine-6-carboxamide] | ≤ 50 nM
CNc1cc2c(N[C@H](C)c3cccc(C#N)c3C)nnc(C)c2cc1C(=O)N(C)C1CCOCC1 [Example 6, (R)-1-((1-(3-cyano-2-methylphenyl)ethyl)amino)-N,4-dimethyl-7-(methylamino)-N-(tetrahydro-2H-pyran-4-yl)phthalazine-6-carboxamide] | ≤ 50 nM
CNc1cc2c(N[C@H](C)c3cccc(C#N)c3C)nnc(C)c2cc1C(=O)N1CC2COCC2C1 (stereo partly drawn) [Example 7, 3-((1R)-1-((6-(hexahydro-1H-furo[3,4-c]pyrrole-5-carbonyl)-4-methyl-7-(methylamino)phthalazin-1-yl)amino)ethyl)-2-methylbenzonitrile] | ≤ 50 nM
CNc1cc2c(N[C@H](C)c3cccc(C#N)c3C)nnc(C)c2cc1C(=O)N1CCN(C)CC1 [Example 8, (R)-2-methyl-3-(1-((4-methyl-7-(methylamino)-6-(4-methylpiperazine-1-carbonyl)phthalazin-1-yl)amino)ethyl)benzonitrile] | ≤ 50 nM
CNc1cc2c(N[C@H](C)c3cccc(C#N)c3C)nnc(C)c2cc1C(=O)N1CCNCC1 [Example 9, (R)-2-methyl-3-(1-((4-methyl-7-(methylamino)-6-(piperazine-1-carbonyl)phthalazin-1-yl)amino)ethyl)benzonitrile] | ≤ 50 nM
CNc1cc2c(N[C@H](C)c3cccc(C#N)c3C)nnc(C)c2cc1C(=O)N1CCC(F)(F)CC1 [Example 10, (R)-3-(1-((6-(4,4-difluoropiperidin-1-carbonyl)-4-methyl-7-(methylamino)phthalazin-1-yl)amino)ethyl)-2-methylbenzonitrile] | ≤ 50 nM
CNc1cc2c(N[C@H](C)c3cccc(C#N)c3C)nnc(C)c2cc1C(=O)N1CC2(COC2)C1 [Example 11, (R)-2-methyl-3-(1-((4-methyl-7-(methylamino)-6-(2-oxa-6-azaspiro[3.3]heptane-6-carbonyl)phthalazin-1-yl)amino)ethyl)benzonitrile] | ≤ 50 nM
CCN1CCN(C(=O)c2cc3c(C)nnc(N[C@H](C)c4cccc(C#N)c4C)c3cc2NC)CC1 [Example 12, (R)-3-(1-((6-(4-ethylpiperazine-1-carbonyl)-4-methyl-7-(methylamino)phthalazin-1-yl)amino)ethyl)-2-methylbenzonitrile] | ≤ 50 nM
CNc1cc2c(N[C@H](C)c3cccc(C#N)c3C)nnc(C)c2cc1C(=O)N1CCN(C2CC2)CC1 [Example 13, (R)-3-(1-((6-(4-cyclopropylpiperazine-1-carbonyl)-4-methyl-7-(methylamino)phthalazin-1-yl)amino)ethyl)-2-methylbenzonitrile] | ≤ 50 nM
CNc1cc2c(N[C@H](C)c3cccc(C#N)c3C)nnc(C)c2cc1C(=O)N1CCCC1 [Example 14, (R)-2-methyl-3-(1-((4-methyl-7-(methylamino)-6-(pyrrolidine-1-carbonyl)phthalazin-1-yl)amino)ethyl)benzonitrile] | ≤ 50 nM
CNc1cc2c(N[C@H](C)c3cccc(C#N)c3C)nnc(C)c2cc1C(=O)N1CCCCC1 [Example 15, (R)-2-methyl-3-(1-((4-methyl-7-(methylamino)-6-(piperidine-1-carbonyl)phthalazin-1-yl)amino)ethyl)benzonitrile] | ≤ 50 nM
CNc1cc2c(N[C@H](C)c3cccc(C#N)c3C)nnc(C)c2cc1C(=O)N1CCC1 [Example 16, (R)-3-(1-((6-(azetidine-1-carbonyl)-4-methyl-7-(methylamino)phthalazin-1-yl)amino)ethyl)-2-methylbenzonitrile] | ≤ 50 nM
CNc1cc2c(N[C@H](C)c3cccc(C#N)c3C)nnc(C)c2cc1C(=O)N1CC(F)C1 [Example 17, (R)-3-(1-((6-(3-fluoroazetidine-1-carbonyl)-4-methyl-7-(methylamino)phthalazin-1-yl)amino)ethyl)-2-methylbenzonitrile] | ≤ 50 nM
CNc1cc2c(N[C@H](C)c3cccc(C#N)c3C)nnc(C)c2cc1C(=O)N1CCC2(CC2)C1 [Example 18, (R)-2-methyl-3-(1-((4-methyl-7-(methylamino)-6-(5-azaspiro[2.4]heptane-5-carbonyl)phthalazin-1-yl)amino)ethyl)benzonitrile] | ≤ 50 nM
CNc1cc2c(N[C@H](C)c3cccc(C#N)c3C)nnc(C)c2cc1C(=O)N1CC2CC1CO2 (stereo partly drawn) [Example 19, 3-((1R)-1-((6-(2-oxa-5-azabicyclo[2.2.1]heptane-5-carbonyl)-4-methyl-7-(methylamino)phthalazin-1-yl)amino)ethyl)-2-methylbenzonitrile] | ≤ 50 nM
CNc1cc2c(N[C@H](C)c3cccc(C#N)c3C)nnc(C)c2cc1C(=O)N1CCN(C2CCCCC2)CC1 [Example 20, (R)-3-(1-((6-(4-cyclohexylpiperazine-1-carbonyl)-4-methyl-7-(methylamino)phthalazin-1-yl)amino)ethyl)-2-methylbenzonitrile] | ≤ 50 nM
CNc1cc2c(N[C@H](C)c3cccc(C#N)c3C)nnc(C)c2cc1C(=O)N1CCN(C(C)C)CC1 [Example 21, (R)-3-(1-((6-(4-isopropylpiperazine-1-carbonyl)-4-methyl-7-(methylamino)phthalazin-1-yl)amino)ethyl)-2-methylbenzonitrile] | ≤ 50 nM
CNc1cc2c(N[C@H](C)c3cccc(C#N)c3C)nnc(C)c2cc1C(=O)N1CCC(N2CCOCC2)CC1 [Example 22, (R)-2-methyl-3-(1-((4-methyl-7-(methylamino)-6-(4-morpholinopiperidin-1-carbonyl)phthalazin-1-yl)amino)ethyl)benzonitrile] | ≤ 50 nM
CNc1cc2c(N[C@H](C)c3cccc(C#N)c3C)nnc(C)c2cc1C(=O)NCCN1CCOCC1 [Example 23, (R)-1-((1-(3-cyano-2-methylphenyl)ethyl)amino)-4-methyl-7-(methylamino)-N-(2-morpholinoethyl)phthalazine-6-carboxamide] | ≤ 50 nM
CNc1cc2c(N[C@H](C)c3cccc(C#N)c3C)nnc(C)c2cc1C(=O)N1CCCOCC1 [Example 24, (R)-2-methyl-3-(1-((4-methyl-7-(methylamino)-6-(1,4-oxazepane-4-carbonyl)phthalazin-1-yl)amino)ethyl)benzonitrile] | ≤ 50 nM
